Source: patent publication US8575135B2 (Gilead Sciences, Inc., priority 2011, dated 2013)
Read-outs that look alike come from different tables or passages of the source.

Tests used:
Test in all cases: microbe, parasite or virus in culture
Conditions in all cases: Hepatitis C virus
[1] = test system: stable HCV 2a JFH-1 Rluc replicon cells (L31 present in NS5A); type: cell-based
[2] = test system: stable HCV 1a RLuc replicon cells (genotype 1a H77 replicon); type: cell-based
[3] = test system: 1a Pi-Rluc replicon with Q30R in genotype 1a NS5A; type: cell-based, HCV
How it was run: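 Renilla luciferase replicon assay: 1a Pi-RLuc replicon carrying NS5A Q30R, transfected transiently into cured-51 (Huh-7-derived) cells.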

[4] = test system: NS5A chimeric genotype 1b Con1 replicon with genotype 4a ED43 strain NS5A gene; type: cell-based, HCV
[5] = test system: NS5A chimeric genotype 2a JFH-1 replicon with genotype 2b MD2b-1 strain NS5A gene (M31 present); type: cell-based, HCV
How it was run: (§1)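 Genotype 3a (S52) and 4a (ED43) NS5A chimeras use 1b Con1 Pi-RLuc replicons, transfected transiently; 2b MD2b-1 NS5A chimera (M31) uses 2a JFH-1 RLuc-Neo replicon, transient or stable.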

[6] = test system: NS5A chimeric genotype 1b Con1 replicon with genotype 3a S52 strain NS5A gene; type: cell-based, HCV
How it was run: as §1

[7] = test system: NS5A chimeric genotype 2a JFH-1 replicon with genotype 2a J6 strain NS5A gene (M31 present); type: cell-based, HCV

Row | SMILES | EC50 ([1]; read-out: 2a JFH) | EC50 ([1]; read-out: 2a JFH (nM)) | EC50 ([2]; read-out: 1a) | EC50 ([2]; read-out: 1a (nM)) | EC50 ([3]; read-out: 1a Q30R) | EC50 ([3]; read-out: 1a Q30R (nM)) | EC50 ([4]; read-out: 4a) | EC50 ([4]; read-out: 4a (t) (nM)) | EC50 ([5]; read-out: 2b) | EC50 ([5]; read-out: 2b (s) (nM)) | EC50 ([5]; read-out: 2b (t) (nM)) | EC50 ([6]; read-out: 3a) | EC50 ([6]; read-out: 3a (nM)) | EC50 ([7]; read-out: 2a J6) | EC50 ([7]; read-out: 2a J6 (s) (nM)) | EC50 ([7]; read-out: 2a Jb (t) (nM)) | EC50 ([4]; read-out: 4a (s) (nM))
1 | COC[C@H]1C[C@@H](c2nc3c([nH]2)-c2cc4c(cc2CC3)-c2ccc(-c3cnc([C@@H]5CCCN5C(=O)[C@@H](NC(=O)OC)C(C)C)[nH]3)cc2CO4)N(C(=O)[C@H](NC(=O)OC)c2ccccc2)C1 [Example MR, methyl{(1R)-2-[(2S,4S)-2-(9-{2-[(2S)-1-{(2S)-2-[(methoxycarbonyl)amino]-3-methylbutanoyl}pyrrolidin-2-yl)-1H-imidazol-5-yl]-1,11-dihydroisochromeno[4′,3′:6,7]-4,5-dihydro-naphtho[1,2-d]imidazol-2-yl}-(methoxymethyl)pyrrolidin-1-yl]-2-oxo-1-phenylethyl}carbamate] | < 1 nM | 0.017 nM | < 1 nM | 0.028 nM | < 1 nM | 0.128 nM | < 1 nM | 0.045 nM | < 1 nM | 0.053 nM | 0.039 nM | < 1 nM | 0.078 nM | < 1 nM | 0.176 nM | 0.079 nM | –
2 | COC(=O)N[C@H](C(=O)N1CCC[C@H]1c1ncc(-c2ccc3c(c2)COc2cc4c(ccc5nc([C@@H]6C[C@H](C)CN6C(=O)[C@@H](NC(=O)OC)C(C)C)[nH]c54)cc2-3)[nH]1)C(C)C [Compound 526] | < 1 nM | 0.007 nM | < 1 nM | 0.011 nM | < 1 nM | 0.095 nM | < 1 nM | 0.011 nM | < 1 nM | 0.404 nM | 0.132 nM | < 1 nM | 0.018 nM | < 1 nM | 1.64 nM | 0.443 nM | 0.011 nM
3 | COC(=O)N[C@H](C(=O)N1[C@@H]2C[C@@H]2C[C@H]1c1nc2ccc3cc4c(cc3c2[nH]1)OCc1cc(-c2cnc([C@@H]3CCCN3C(=O)[C@H](NC(=O)OC)c3ccccc3)[nH]2)ccc1-4)C(C)C [Compound 536] | < 1 nM | 0.004 nM | < 1 nM | 0.008 nM | < 1 nM | 0.048 nM | < 1 nM | 0.005 nM | < 1 nM | 0.037 nM | 0.011 nM | < 1 nM | 0.009 nM | < 1 nM | 0.154 nM | 0.04 nM | 0.01 nM
4 | COC(=O)N[C@H](C(=O)N1CCC[C@H]1c1ncc(-c2ccc3c(c2)COc2cc4c(ccc5nc([C@@H]6CCCN6C(=O)[C@H](NC(=O)OC)c6ccccc6)[nH]c54)cc2-3)[nH]1)[C@@H](C)OC [Compound 588] | < 1 nM | 0.004 nM | < 1 nM | 0.012 nM | < 1 nM | 0.087 nM | < 1 nM | 0.019 nM | < 1 nM | 0.017 nM | 0.012 nM | < 1 nM | 0.027 nM | < 1 nM | 0.14 nM | 0.038 nM | –
5 | COC(=O)N[C@H](C(=O)N1CCC[C@H]1c1nc2c([nH]1)-c1cc3c(cc1CC2)-c1ccc(-c2cnc([C@@H]4CCCN4C(=O)[C@H](NC(=O)C4CC4)c4ccccc4)[nH]2)cc1CO3)C(C)C [Compound 494] | < 1 nM | 0.005 nM | < 1 nM | 0.037 nM | < 1 nM | 0.118 nM | < 1 nM | 0.017 nM | < 1 nM | 0.017 nM | – | < 1 nM | 0.005 nM | < 1 nM | 0.098 nM | – | 0.031 nM
6 | COC(=O)N[C@H](C(=O)N1[C@@H](C)CC[C@H]1c1ncc(-c2ccc3c(c2)COc2cc4c(ccc5nc([C@@H]6CC[C@H](C)N6C(=O)[C@@H](NC(=O)OC)C(C)C)[nH]c54)cc2-3)[nH]1)C(C)C [Example NG, Methyl {(2S)-1-[(2S,5S)-2-(5-{2-[(2S,5S)-1-{(2S)-2-[(methoxycarbonyl)amino]-3-methylbutanoyl}-5-methylpyrrolidin-2-yl]-1,11-dihydroisochromeno[4′,3′:6,7]naphtho[1,2-d]imidazol-9-yl}-1H-imidazol-2-yl)-5-methylpyrrolidin-1-yl]-3-methyl-1-oxobutan-2-yl}carbamate] | < 1 nM | 0.01 nM | < 1 nM | 0.006 nM | < 1 nM | 0.243 nM | < 1 nM | 0.008 nM | < 1 nM | 0.135 nM | 0.063 nM | < 1 nM | 0.02 nM | < 1 nM | 1.67 nM | 0.37 nM | –
7 | COC[C@H]1C[C@@H](c2ncc(-c3ccc4c(c3)COc3cc5c(ccc6nc([C@@H]7CC[C@H](C)N7C(=O)[C@@H](NC(=O)OC)C(C)C)[nH]c65)cc3-4)[nH]2)N(C(=O)[C@@H](NC(=O)OC)C(C)C)C1 [Example PZ, Methyl {(2S)-1-[(2S,5S)-2-(9-{2-[(2S,4S)-1-{(2S)-2-[(methoxycarbonyl)amino]-3-methylbutanoyl}-4-(methoxymethyl)pyrrolidin-2-yl]-1H-imidazol-5-yl}-1,11-dihydroisochromeno[4′,3′:6,7]naphtho[1,2-d]imidazol-2-yl)-5-methylpyrrolidin-1-yl]-3-methyl-1-oxobutan-2-yl}carbamate] | < 1 nM | 0.005 nM | < 1 nM | 0.009 nM | < 1 nM | 0.057 nM | – | – | < 1 nM | 0.386 nM | 0.071 nM | < 1 nM | – | < 1 nM | 1.71 nM | 0.175 nM | 0.025 nM
8 | CCO[C@H]1C[C@@H](c2nc3ccc4cc5c(cc4c3[nH]2)OCc2cc(-c3cnc([C@@H]4CCCN4C(=O)[C@@H](NC(=O)OC)C(C)C)[nH]3)ccc2-5)N(C(=O)[C@@H](NC(=O)OC)C(C)C)C1 [Example OQ, Methyl {(2S)-1-[(2S)-2-(5-{2-[(2S,4S)-4-ethoxy-1-{(2S)-2-[(methoxycarbonyl)amino]-3-methylbutanoyl}pyrrolidin-2-yl]-1,11-dihydroisochromeno[4′,3′:6,7]naphtho[1,2-d]imidazol-9-yl}-1H-imidazol-2-yl)pyrrolidin-1-yl]-3-methyl-1-oxobutan-2-yl}carbamate] | < 1 nM | 0.007 nM | < 1 nM | 0.015 nM | < 1 nM | 0.102 nM | < 1 nM | 0.02 nM | < 1 nM | 0.982 nM | 0.265 nM | < 1 nM | 0.048 nM | < 1 nM | 1.49 nM | 0.378 nM | 0.016 nM
9 | COC[C@@H]1C[C@@H](c2nc3ccc4cc5c(cc4c3[nH]2)OCc2cc(-c3cnc([C@@H]4CCCN4C(=O)[C@@H](NC(=O)OC)C(C)C)[nH]3)ccc2-5)N(C(=O)[C@H](NC(=O)OC)c2ccccc2)C1 [Example MQ, methyl{(1R)-2-[(2S,4R)-2-(9-{2-[(2S)-1-{(2S)-2-[(methoxycarbonyl)amino]-3-methylbutanoyl}pyrrolidin-2-yl)-1H-imidazol-5-yl]-1,11-dihydroisochromeno[4′,3′:6,7]naphtho[1,2-d]imidazol-2-yl}-4-(methoxymethyl)pyrrolidin-1-yl]-2-oxo-phenylethyl}carbamate] | < 1 nM | 0.004 nM | < 1 nM | 0.008 nM | < 1 nM | 0.023 nM | < 1 nM | 0.011 nM | < 1 nM | 0.023 nM | 0.009 nM | < 1 nM | 0.016 nM | < 1 nM | 0.095 nM | 0.017 nM | –
10 | COC(=O)N[C@H](C(=O)N1[C@H](c2nc3ccc4cc5c(cc4c3[nH]2)OCc2cc(-c3cnc(C4CCCN4C(=O)[C@@H](NC(=O)OC)C4CCOCC4)[nH]3)ccc2-5)C[C@@H]2CCC[C@@H]21)C(C)C (stereo partly drawn) [Example PP, methyl [(1S)-2-[2-(5-{2-[(2S,3aS,6aS)-1-{(2S)-2-[(methoxycarbonyl)amino]-3-methylbutanoyl}octahydrocyclopenta[b]pyrrol-2-yl]-1,11-dihydroisochromeno[4′,3′:6,7]naphtho[1,2-d]imidazol-9-yl}-1H-imidazol-2-yl)pyrrolidin-1-yl]-2-oxo-1-(tetrahydro-2H-pyran-4-yl)ethyl]carbamate] | < 1 nM | 0.011 nM | < 1 nM | 0.014 nM | < 1 nM | 0.043 nM | < 1 nM | 0.027 nM | < 1 nM | 0.11 nM | 0.038 nM | < 1 nM | 0.019 nM | < 1 nM | 0.403 nM | 0.061 nM | 0.011 nM
